Measured values from patent US20190119200A1, “TERTIARY AMIDES AND METHOD OF USE” (AbbVie Inc., priority 2016, published 2019).

What was measured:
Assay type in all cases: cell-based
[1] = molecular target: T1, LPAR1 (Homo sapiens, UniProt Q92633); experiment: LPAR1 FLIPR Assay; details: U2OS cells stably expressing LPAR1, LPA (EC80), Calcium 6 FLIPR dye; for Emax: read-out: Maximum Inhibition
T1 construct: host or cells: U2OS
Outline: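 U2OS cells stably expressing LPAR1 were loaded with Calcium 6 dye for 2 h at 37° C, preincubated 3 min with compound (11-point 3-fold series), then stimulated with LPA at EC80. Fluorescence at 515-575 nm was recorded by FLIPR; IC50 came from four-parameter logistic fits of ratio data.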

[2] = system: LPA-induced MCP-1 in NRK-49F cells; experiment: LPA-induced MCP-1 AlphaLISA assay; details: Rattus norvegicus, final LPA 10 μM, 7 hours; for Emax: read-out: Maximum Inhibition
Outline: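 NRK-49F rat fibroblasts, serum-starved overnight, pretreated with compound for 30 min at 37 °C (1% DMSO final), then stimulated with 10 μM LPA final. MCP-1 in the supernatant was measured by mouse/rat CCL2 AlphaLISA. IC50 values came from four-parameter logistic fits of the ratio data.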

[3] = molecular target: T1, LPAR1; experiment: LPAR1 Arrestin Assay (arrestin reporter assay); details: U2OS cells stably expressing the LPAR1 receptor, 200 nM 18:1 LPA (EC80); for Emax: read-out: Maximum Inhibition
Description: One day prior to the experiment, frozen U2OS cells stably expressing the LPAR1 receptor (Life Technologies, Grand Island, N.Y., #K1519A) were thawed, centrifuged at 1,000 rpm for 5 minutes to remove DMSO, and resuspended in FreeStyle™ media (Gibco, Grand Island, N.Y.). Forty microliters of cells were plated into PDL-coated 384-well plates (Greiner Bio-One, Monroe, N.C.) at 10,000 cells/well, and then the plates were incubated overnight in humidified 5% CO2 at 37° C. Test compounds were dissolved in DMSO, and 12-point, 1:3 dilution CRCs were prepared in duplicate; daughter plates were prepared by aliquoting 0.8 μL/well of test compound dilutions into 384-well plates. On the day of the assay, the daughter plates were diluted to 6× stocks using HEPES-buffered HBSS, then 10 μL of 6× test compounds were added to the cells, and the plates were incubated at 37° C. for one hour. After this 1 hour incubation, 10 μL of a 6× stock of the LPAR1 agonist, 18:1 LPA (Avanti Polar Lipids, Alabaster, Ala.), was prepared in HEPES-buffered HBSS+0.1% fatty acid-free BSA (Sigma, St. Louis, Mo.). The 6×LPA was added to all wells for a final concentration of 200 nM, which corresponds to the 18:1 LPA EC80 in this arrestin assay. The final DMSO concentration in the assay plate was 0.1%, and the final BSA concentration was 0.02%. After addition of LPA to all wells, the assay plates were incubated in humidified 5% CO2 at 37° C. for five hours. During the incubation period, 6× dye from the LiveBLAzer™-FRET B/G with CCF4-AM kit (Life Technologies, Grand Island, N.Y.) was prepared according to manufacturers' instructions. At the end of the 5 hour compound incubation, 10 μL of 6× dye was added to each well, and the assay plate was incubated for two hours in the dark at room temperature. Throughout the assay procedure, all volume additions were performed with a Biomek® NX liquid handler (Beckman Coulter, Indianapolis, Ind.). After the 2 hour dye-load, fluorescence was measured on an EnVision® Multilabel Plate Reader (Perkin Elmer, Waltham, Mass.) with an excitation filter at 409/20 nm and emission filters at 460/40 nm and 530/30 nm. Data processing was performed as recommended by the LiveBLAzer™-FRET B/G with CCF4-AM kit manual; all test compound CRCs were performed in duplicate with n≥3.

T1 sequence (Q92633 whole entry): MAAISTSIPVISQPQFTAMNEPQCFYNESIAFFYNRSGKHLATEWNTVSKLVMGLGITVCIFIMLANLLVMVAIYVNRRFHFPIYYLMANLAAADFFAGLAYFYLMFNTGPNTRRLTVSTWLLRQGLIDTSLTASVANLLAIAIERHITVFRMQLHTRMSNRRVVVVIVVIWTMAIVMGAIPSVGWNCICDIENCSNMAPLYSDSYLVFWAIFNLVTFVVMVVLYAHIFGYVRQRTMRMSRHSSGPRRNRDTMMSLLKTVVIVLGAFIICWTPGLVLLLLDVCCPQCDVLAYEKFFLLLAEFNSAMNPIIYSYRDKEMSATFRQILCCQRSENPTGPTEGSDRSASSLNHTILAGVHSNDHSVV

SMILES	IC50 [1]	Emax [1]	IC50 [2]	Emax [2]	IC50 [3]	Emax [3]
COc1cc(C(=O)N(CCCc2ccccc2)CCC[C@H](C)C(=O)O)cc(OC)c1C (single isomer, unassigned) [Example 78]	33 nM	100%	78 nM	95%	11 nM	103%
COc1cc(C(=O)N(CCCc2ccc(F)cc2F)CCOCC(=O)O)cc(OC)c1C [Example 130, (2-{[3-(2,4-difluorophenyl)propyl](3,5-dimethoxy-4-methylbenzoyl)amino}ethoxy)acetic Acid]	41 nM	83%	1790 nM	83%	760 nM	119%
COc1cc(C(=O)N(CCCCC(=O)O)CCCc2ccccc2)cc(OC)c1F [Example 99, 5-[(4-fluoro-3,5-dimethoxybenzoyl)(3-phenylpropyl)amino]pentanoic Acid]	67 nM	82%	7850 nM	56%	3250 nM	112%
COc1cc(C(=O)N(CCCCC(=O)O)CCCc2ccc(C)o2)c(F)c(OC)c1F [Example 175, 5-{(2,4-difluoro-3,5-dimethoxybenzoyl)[3-(5-methylfuran-2-yl)propyl]amino}pentanoic Acid]	48 nM	73%	3940 nM	67%	5680 nM	119%
COc1cc(OC)c(Cl)c(C(=O)N(CCCCC(=O)O)CCCc2ccccc2)c1 [Example 39, 5-[(2-chloro-3,5-dimethoxybenzoyl)(3-phenylpropyl)amino]pentanoic Acid]	54 nM	96%	318 nM	80%	1210 nM	99%
COc1cc(C(=O)N(CCCCC(=O)O)CCCc2ccccc2)cc(OC)n1 [Example 48, 5-[(2,6-dimethoxypyridine-4-carbonyl)(3-phenylpropyl)amino]pentanoic Acid]	52 nM	81%	> 4770 nM	62%	3320 nM	113%
COc1cc(OC)cc(C(=O)N(CCCCC(=O)O)CCCc2ccccc2F)c1 [Example 134, 5-{(3,5-dimethoxybenzoyl)[3-(2-fluorophenyl)propyl]amino}pentanoic Acid]	74 nM	77%	> 10000 nM	37%	2240 nM	125%
COc1ccc(C2(C(=O)N(CCCCC(=O)O)CCCc3ccccc3)CC2)nc1 [Example 63, 5-{[1-(5-methoxypyridin-2-yl)cyclopropane-1-carbonyl](3-phenylpropyl)amino}pentanoic Acid]	80 nM	87%	5530 nM	51%	3070 nM	118%
COc1cc(C(=O)N(CCCc2ccc(C)o2)CCCC(C)(O)C(=O)O)cc(OC)c1C (stereo not drawn) [Example 174, 5-{(3,5-dimethoxy-4-methylbenzoyl)[3-(5-methylfuran-2-yl)propyl]amino}-2-hydroxy-2-methylpentanoic Acid]	33 nM	73%	5430 nM	65%	991 nM	118%
COc1cc(C(=O)N(CCCc2ccc(F)cc2)CCOCC(=O)O)cc(OC)c1C [Example 139, (2-{(3,5-dimethoxy-4-methylbenzoyl)[3-(4-fluorophenyl)propyl]amino}ethoxy)acetic Acid]	46 nM	78%	3150 nM	72%	464 nM	125%
COc1cc(C(=O)N(CCCCC(=O)O)CCCc2ccccc2)c(F)c(OC)c1F [Example 30, 5-[(2,4-difluoro-3,5-dimethoxybenzoyl)(3-phenylpropyl)amino]pentanoic Acid]	42 nM	96%	743 nM	74%	618 nM	118%
COc1cc(C(=O)N(CCCCC(=O)O)CCCc2ccc(C)o2)cc(OC)c1C1CC1 [Example 178, 5-{(4-cyclopropyl-3,5-dimethoxybenzoyl)[3-(5-methylfuran-2-yl)propyl]amino}pentanoic Acid]	45 nM	84%	1970 nM	77%	1560 nM	122%
COc1cc(C(=O)N(CCCCC(=O)O)CCCc2c(F)cccc2F)cc(OC)c1C [Example 147, 5-{[3-(2,6-difluorophenyl)propyl](3,5-dimethoxy-4-methylbenzoyl)amino}pentanoic Acid]	31 nM	93%	665 nM	86%	178 nM	122%
COc1cc(OC)c(F)c(C(=O)N(CCCCC(=O)O)CCCc2ccccc2)c1 [Example 58, 5-[(2-fluoro-3,5-dimethoxybenzoyl)(3-phenylpropyl)amino]pentanoic Acid]	32 nM	93%	2390 nM	78%	636 nM	112%
COc1cc(C(=O)N(CCCc2ccccc2)CC(=O)NC(C)(C)C(=O)O)cc(OC)c1C [Example 45, N-(3,5-dimethoxy-4-methylbenzoyl)-N-(3-phenylpropyl)glycyl-2-methylalanine]	51 nM	91%	5540 nM	71%	494 nM	108%
COc1ccc(C2(C(=O)N(CCCCC(=O)O)CCCc3ccccc3)COC2)cc1 [Example 89, 5-{[3-(4-methoxyphenyl)oxetane-3-carbonyl](3-phenylpropyl)amino}pentanoic Acid]	36 nM	95%	4700 nM	65%	445 nM	114%
COc1cc(C(=O)N(CCCc2ccccc2)CCOC(=O)NS(C)(=O)=O)cc(OC)c1C [Example 184, 2-[(3,5-dimethoxy-4-methylbenzoyl)(3-phenylpropyl)amino]ethyl (methanesulfonyl)carbamate]	131 nM	66%	5560 nM	58%	1550 nM	99%
COc1cc(OC)cc(C(=O)N(CCCCC(=O)O)CCCc2cccc(F)c2)c1 [Example 90, 5-{(3,5-dimethoxybenzoyl)[3-(3-fluorophenyl)propyl]amino}pentanoic Acid]	37 nM	88%	2500 nM	76%	675 nM	108%
COc1cc(C(=O)N(CCCc2ccccc2)CCCC(O)C(=O)O)cc(OC)c1C (stereo not drawn) [Example 151, 5-[(3,5-dimethoxy-4-methylbenzoyl)(3-phenylpropyl)amino]-2-hydroxypentanoic Acid]	37 nM	79%	1630 nM	79%	665 nM	114%
